Data from PubChem BioAssay (NCI).
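Tested at 5 concentrations; 48 h exposure; 96-well plates; endpoints linearly interpolated, else capped at highest concentration. TGI marks complete inhibition of growth.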

Tests used:
Test in all cases: NCI tumour cell line growth inhibition, 48 h
[1] = tested on: 786-0 renal
[2] = tested on: A498 renal
[3] = tested on: A549 NSCLC
[4] = tested on: ACHN renal
[5] = tested on: BT-549 breast
[6] = tested on: CAKI-1 renal
[7] = tested on: CCRF-CEM leukemia
[8] = tested on: COLO 205 colon
[9] = tested on: DU-145 prostate
[10] = tested on: EKVX NSCLC
[11] = tested on: HCC-2998 colon
[12] = tested on: HCT-116 colon
[13] = tested on: HCT-15 colon
[14] = tested on: HL-60(TB) leukemia
[15] = tested on: HOP-62 NSCLC
[16] = tested on: HS 578T breast
[17] = tested on: HT29 colon
[18] = tested on: IGROV1 ovarian
[19] = tested on: K-562 leukemia
[20] = tested on: KM12 colon
[21] = tested on: LOX IMVI melanoma
[22] = tested on: M14 melanoma
[23] = tested on: MALME-3M melanoma
[24] = tested on: MCF7 breast
[25] = tested on: MDA-MB-231 breast
[26] = tested on: MDA-MB-435
[27] = tested on: MDA-N
[28] = tested on: MOLT-4 leukemia
[29] = tested on: NCI-H226 lung
[30] = tested on: NCI-H23 lung
[31] = tested on: NCI-H460 lung
[32] = tested on: NCI-H522 lung
[33] = tested on: NCI/ADR-RES ovarian
[34] = tested on: OVCAR-3 ovarian
[35] = tested on: OVCAR-4 ovarian
[36] = tested on: OVCAR-5 ovarian
[37] = tested on: OVCAR-8 ovarian
[38] = tested on: PC-3 prostate
[39] = tested on: RPMI-8226 leukemia
[40] = tested on: RXF 393 renal
[41] = tested on: SF-268 CNS
[42] = tested on: SF-295 CNS
[43] = tested on: SF-539 CNS
[44] = tested on: SK-MEL-2 melanoma
[45] = tested on: SK-MEL-28 melanoma
[46] = tested on: SK-MEL-5 melanoma
[47] = tested on: SK-OV-3 ovarian
[48] = tested on: SN12C renal
[49] = tested on: SNB-19 CNS
[50] = tested on: SNB-75 CNS
[51] = tested on: SR leukemia
[52] = tested on: SW-620 colon
[53] = tested on: T-47D breast
[54] = tested on: U251 CNS
[55] = tested on: UACC-257 melanoma
[56] = tested on: UACC-62 melanoma
[57] = tested on: UO-31 renal
[58] = tested on: TK-10 renal

## NC(=O)c1nnsc1N/N=C/c1ccc([N+](=O)[O-])cc1
[1]
  TGI: > 100 µM
[2]
  TGI: > 100 µM
[3]
  TGI: > 100 µM
[4]
  TGI: > 100 µM
[5]
  TGI: 88.6 µM
[6]
  TGI: > 100 µM
[7]
  TGI: > 100 µM
[8]
  TGI: > 100 µM
[9]
  TGI: > 100 µM
[10]
  TGI: > 100 µM
[11]
  TGI: > 100 µM
[12]
  TGI: > 100 µM
[13]
  TGI: > 100 µM
[14]
  TGI: > 100 µM
[15]
  TGI: > 100 µM
[16]
  TGI: > 100 µM
[17]
  TGI: > 100 µM
[18]
  TGI: > 100 µM
[19]
  TGI: > 100 µM
[20]
  TGI: > 100 µM
[21]
  TGI: > 100 µM
[22]
  TGI: > 100 µM
[23]
  TGI: > 100 µM
[24]
  TGI: > 100 µM
[25]
  TGI: > 100 µM
[26]
  TGI: > 100 µM
[27]
  TGI: > 100 µM
[28]
  TGI: > 100 µM
[29]
  TGI: > 100 µM
[30]
  TGI: > 100 µM
[31]
  TGI: > 100 µM
[32]
  TGI: > 100 µM
[33]
  TGI: > 100 µM
[34]
  TGI: > 100 µM
[35]
  TGI: > 100 µM
[36]
  TGI: > 100 µM
[37]
  TGI: > 100 µM
[38]
  TGI: > 100 µM
[39]
  TGI: > 100 µM
[40]
  TGI: > 100 µM
[41]
  TGI: > 100 µM
[42]
  TGI: > 100 µM
[43]
  TGI: > 100 µM
[44]
  TGI: > 100 µM
[45]
  TGI: > 100 µM
[46]
  TGI: > 100 µM
[47]
  TGI: > 100 µM
[48]
  TGI: > 100 µM
[49]
  TGI: > 100 µM
[50]
  TGI: > 100 µM
[51]
  TGI: > 100 µM
[52]
  TGI: > 100 µM
[53]
  TGI: > 100 µM
[54]
  TGI: > 100 µM
[55]
  TGI: > 100 µM
[56]
  TGI: > 100 µM
[57]
  TGI: > 100 µM

## CCOC(=O)c1nnsc1NC(=O)NCCCCCCn1c(=O)n(CCCCCCNC(=O)Nc2snnc2C(=O)OCC)c(=O)n(CCCCCCNC(=O)Nc2snnc2C(=O)OCC)c1=O
[1]
  TGI: 30.3 µM
[2]
  TGI: > 100 µM
[3]
  TGI: > 100 µM
[4]
  TGI: > 100 µM
[5]
  TGI: > 100 µM
[6]
  TGI: > 100 µM
[7]
  TGI: > 100 µM
[8]
  TGI: > 100 µM
[9]
  TGI: > 100 µM
[10]
  TGI: > 100 µM
[11]
  TGI: > 100 µM
[12]
  TGI: > 100 µM
[13]
  TGI: > 100 µM
[15]
  TGI: 69.8 µM
[16]
  TGI: 50 µM
[17]
  TGI: > 100 µM
[18]
  TGI: > 100 µM
[19]
  TGI: > 100 µM
[20]
  TGI: > 100 µM
[22]
  TGI: > 100 µM
[23]
  TGI: 53.2 µM
[24]
  TGI: > 100 µM
[25]
  TGI: 41.1 µM
[26]
  TGI: > 100 µM
[27]
  TGI: > 100 µM
[28]
  TGI: > 100 µM
[29]
  TGI: 47.7 µM
[30]
  TGI: 90.4 µM
[31]
  TGI: 44.3 µM
[33]
  TGI: > 100 µM
[34]
  TGI: > 100 µM
[35]
  TGI: > 100 µM
[36]
  TGI: > 100 µM
[37]
  TGI: > 100 µM
[38]
  TGI: > 100 µM
[39]
  TGI: 46.4 µM
[40]
  TGI: 86.2 µM
[41]
  TGI: 48.4 µM
[42]
  TGI: > 100 µM
[44]
  TGI: > 100 µM
[46]
  TGI: > 100 µM
[47]
  TGI: > 100 µM
[48]
  TGI: > 100 µM
[49]
  TGI: 38.2 µM
[50]
  TGI: 83 µM
[51]
  TGI: > 100 µM
[52]
  TGI: > 100 µM
[53]
  TGI: > 100 µM
[54]
  TGI: 36.8 µM
[55]
  TGI: > 100 µM
[56]
  TGI: 35.1 µM
[57]
  TGI: > 100 µM

## CCC1(CC)C(=O)N(C(=O)c2ccc(C)cc2)N(C(=O)c2ccc(C)cc2)C1=O
[1]
  TGI: > 75 µM
[3]
  TGI: > 75 µM
[4]
  TGI: > 75 µM
[5]
  TGI: > 75 µM
[6]
  TGI: > 75 µM
[7]
  TGI: > 75 µM
[8]
  TGI: > 75 µM
[9]
  TGI: > 75 µM
[10]
  TGI: > 75 µM
[11]
  TGI: > 75 µM
[12]
  TGI: > 75 µM
[13]
  TGI: > 75 µM
[14]
  TGI: > 75 µM
[15]
  TGI: > 75 µM
[16]
  TGI: > 75 µM
[17]
  TGI: > 75 µM
[18]
  TGI: > 75 µM
[19]
  TGI: > 75 µM
[20]
  TGI: > 75 µM
[21]
  TGI: > 75 µM
[22]
  TGI: > 75 µM
[23]
  TGI: 62.7 µM
[24]
  TGI: > 75 µM
[25]
  TGI: > 75 µM
[26]
  TGI: > 75 µM
[27]
  TGI: > 75 µM
[28]
  TGI: 58.5 µM
[29]
  TGI: > 75 µM
[30]
  TGI: > 75 µM
[31]
  TGI: > 75 µM
[32]
  TGI: 51.6 µM
[33]
  TGI: > 75 µM
[34]
  TGI: 46.4 µM
[35]
  TGI: > 75 µM
[36]
  TGI: > 75 µM
[37]
  TGI: > 75 µM
[38]
  TGI: > 75 µM
[39]
  TGI: > 75 µM
[40]
  TGI: > 75 µM
[41]
  TGI: > 75 µM
[42]
  TGI: > 75 µM
[44]
  TGI: > 75 µM
[45]
  TGI: > 75 µM
[46]
  TGI: > 75 µM
[47]
  TGI: > 75 µM
[48]
  TGI: > 75 µM
[49]
  TGI: > 75 µM
[50]
  TGI: > 75 µM
[51]
  TGI: 68.8 µM
[52]
  TGI: > 75 µM
[53]
  TGI: > 75 µM
[58]
  TGI: > 75 µM
[54]
  TGI: > 75 µM
[55]
  TGI: > 75 µM
[56]
  TGI: > 75 µM
[57]
  TGI: > 75 µM
